Results taken from patent publication US20100075957A1, “AMINODIHYDROTHIAZINE DERIVATIVES SUBSTITUTED WITH A CYCLIC GROUP” (SHIONOGI & CO., LTD., priority 2007, published 2010).

target: T1, Recombinant human BACE-1 (Homo sapiens, UniProt P56817); test: Assay of β-secretase-inhibiting activity; assay type: biochemical; conditions: Recombinant human BACE-1 7.4 nM, substrate peptide 18 nM, pH 5.0, 30° C., 3 hours; Table 139; read-out: IC50;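 further: substrate is a peptide carrying biotin and europium cryptate, after the enzyme reaction, Streptavidin-XL665 is added and incubated 1 h at 30 °C before fluorescence reading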
T1 construct: purchased R&D Systems
T1 sequence (P56817 46-501): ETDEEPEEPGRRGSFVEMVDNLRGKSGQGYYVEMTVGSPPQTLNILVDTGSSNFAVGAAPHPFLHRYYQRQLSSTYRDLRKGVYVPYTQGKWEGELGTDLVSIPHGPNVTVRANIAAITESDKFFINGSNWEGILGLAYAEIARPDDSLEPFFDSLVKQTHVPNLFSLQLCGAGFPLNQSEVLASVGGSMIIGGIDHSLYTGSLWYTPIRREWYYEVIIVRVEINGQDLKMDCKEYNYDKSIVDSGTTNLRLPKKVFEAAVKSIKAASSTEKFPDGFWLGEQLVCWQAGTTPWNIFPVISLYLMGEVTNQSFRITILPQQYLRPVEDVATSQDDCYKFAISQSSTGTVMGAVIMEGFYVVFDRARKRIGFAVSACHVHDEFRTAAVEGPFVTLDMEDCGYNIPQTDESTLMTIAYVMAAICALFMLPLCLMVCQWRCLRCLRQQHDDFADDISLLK

| IC50 [nM] | Compound |
| --- | --- |
| 110 | C[C@@]1(c2cc(NC(=O)c3cnc(-c4ccco4)cn3)ccc2F)CCSC(N)=N1 [Compound 136] |
| 120 | Cc1ccc(NC(=O)c2cnc(Cl)cn2)cc1C1(C)CCSC(N)=N1 (stereo not shown) [Compound 141] |
| 9250 | C[C@@]1(c2cc(NC(=O)COc3ccccc3O)ccc2F)CCSC(N)=N1 [Compound 149] |
| 2480 | C[C@@]1(c2cc(NC(=O)CCc3cccc(N)c3)ccc2F)CCSC(N)=N1 [Compound 150] |
| 6770 | Cc1cc(SCC(=O)Nc2ccc(F)c([C@]3(C)CCSC(N)=N3)c2)nc(N)n1 [Compound 151] |
| 6790 | C[C@@]1(c2cc(NC(=O)CSc3nccc(O)n3)ccc2F)CCSC(N)=N1 [Compound 163] |
| 80 | COCCOCCOc1cnc(C(=O)Nc2ccc(F)c([C@]3(C)CCSC(N)=N3)c2)cn1 [Compound 164] |

| Compound | IC50 [nM] |
| --- | --- |
| C[C@@]1(c2cc(NC(=O)CCc3ccc(O)c(O)c3)ccc2F)CCSC(N)=N1 [Compound 155] | 5960 |

same assay, conditions: Recombinant human BACE-1 7.4 nM, substrate peptide 18 nM, pH 5.0, 30° C., 3 hours; Table 140; read-out: IC50

| IC50 [nM] | Compound |
| --- | --- |
| 30 | Cc1nc(C(=O)Nc2cncc([C@]3(C)CCSC(N)=N3)c2)c(C)o1 [Compound 461] |
| 430 | Cc1cc2cc(NC(=O)c3ccc(OCCO)cn3)cc([C@]3(C)CCSC(N)=N3)c2o1 [Compound 464] |
| 20 | Cc1cnc(C(=O)Nc2cc([C@]3(C)CCSC(N)=N3)c3oc(C)cc3c2)cn1 [Compound 468] |
| 170 | COc1cc(C(=O)Nc2cncc([C@]3(C)CCSC(N)=N3)c2)n(C)n1 [Compound 473] |
| 80 | Cn1nc(Cl)cc1C(=O)Nc1cncc([C@]2(C)CCSC(N)=N2)c1 [Compound 478] |
| 50 | Cc1nnsc1C(=O)Nc1ccc(F)c([C@]2(C)CCSC(N)=N2)c1 [Compound 481] |
| 290 | C[C@@]1(c2cc(NC(=O)c3nc4cnccc4[nH]3)ccc2F)CCSC(N)=N1 [Compound 484] |
| 260 | Cc1cc(C(=O)Nc2ccc(F)c([C@]3(C)CCSC(N)=N3)c2)nn1C [Compound 488] |
| 90 | C[C@@]1(c2cc(NC(=O)c3ncc(O)cc3F)ccc2F)CCSC(N)=N1 [Compound 491] |
| 30 | Cn1cc(-c2cnc(C(=O)Nc3ccc(F)c([C@]4(C)CCSC(N)=N4)c3)cn2)cn1 [Compound 494] |
| 90 | Cc1nc(Br)sc1C(=O)Nc1cncc([C@]2(C)CCSC(N)=N2)c1 [Compound 497] |
| 40 | C[C@@]1(c2cc(NC(=O)c3cn4ccccc4n3)ccc2F)CCSC(N)=N1 [Compound 502] |
| 30 | Cc1nc(C(=O)Nc2ccc(F)c([C@]3(C)CCSC(N)=N3)c2)cs1 [Compound 505] |
| 240 | C[C@@]1(c2cncc(NC(=O)c3ccc(Br)s3)c2)CCSC(N)=N1 [Compound 514] |
| 130 | C[C@@]1(c2cc(NC(=O)c3cnc(Cl)cn3)ccc2Br)CCSC(N)=N1 [Compound 517] |
| 180 | C[C@@]1(c2cc(NC(=O)c3cc4nccnc4s3)ccc2F)CCSC(N)=N1 [Compound 521] |

| Compound | IC50 [nM] |
| --- | --- |
| Cc1ncc(C(=O)Nc2ccc(F)c([C@]3(C)CCSC(N)=N3)c2)s1 [Compound 508] | 40 |

same assay, conditions: Recombinant human BACE-1 7.4 nM, substrate peptide 18 nM, pH 5.0, 30° C., 3 hours; time-resolved fluorescence ratio 665/620; read-out: IC50 values (50% inhibitory concentration against the enzymatic activity)

| IC50 [nM] | Compound |
| --- | --- |
| ≤ 1000 | C#CCOc1cnc(C(=O)Nc2ccc(F)c([C@]3(C)CCSC(N)=N3)c2)cn1 [Compound 133] |
| ≤ 1000 | CCOc1cnc(C(=O)Nc2ccc(F)c([C@]3(C)CCSC(N)=N3)c2)cn1 [Compound 134] |
| ≤ 1000 | C[C@@]1(c2cc(NC(=O)c3ccc(OC(F)F)cn3)ccc2F)CCSC(N)=N1 [Compound 135] |
| ≤ 1000 | CC#CCOc1cnc(C(=O)Nc2ccc(C)c(C3(C)CCSC(N)=N3)c2)cn1 (stereo not shown) [Compound 142] |
| ≤ 1000 | Cc1cnc(C(=O)Nc2cc(F)c(F)c(C3(C)CCSC(N)=N3)c2)cn1 (stereo not shown) [Compound 143] |
| ≤ 1000 | CC1(c2cc(NC(=O)c3cnc(Cl)cn3)cc(F)c2F)CCSC(N)=N1 (stereo not shown) [Compound 144] |
| ≤ 1000 | CC#CCOc1cnc(C(=O)Nc2cc(F)c(F)c(C3(C)CCSC(N)=N3)c2)cn1 (stereo not shown) [Compound 145] |
| ≤ 1000 | C[C@@]1(c2cncc(NC(=O)c3ccc(Cl)cn3)c2)CCSC(N)=N1 [Compound 152] |
| ≤ 1000 | C[C@@]1(c2cc(NC(=O)c3nccnc3C(N)=O)ccc2F)CCSC(N)=N1 [Compound 157] |
| ≤ 1000 | C[C@@]1(c2cc(NC(=O)c3cnc(-c4ccoc4)cn3)ccc2F)CCSC(N)=N1 [Compound 158] |
| ≤ 1000 | C[C@@]1(c2cc(NC(=O)c3cnc(/C=C/CO)cn3)ccc2F)CCSC(N)=N1 [Compound 162] |
| ≤ 1000 | C[C@@]1(c2cc(NC(=O)c3ncc(OCC(F)(F)F)nc3N)ccc2F)CCSC(N)=N1 [Compound 165] |
| ≤ 1000 | Cc1nc(C(=O)Nc2ccc(F)c([C@]3(C)CCSC(N)=N3)c2)co1 [Compound 462] |
| ≤ 1000 | Cc1cc(C(=O)Nc2ccc(F)c([C@]3(C)CCSC(N)=N3)c2)n(C)n1 [Compound 463] |
| ≤ 1000 | COCCOc1cnc(C(=O)Nc2cc([C@]3(C)CCSC(N)=N3)c3oc(C)cc3c2)cn1 [Compound 465] |
| ≤ 1000 | Cc1cc(C(=O)Nc2cncc([C@]3(C)CCSC(N)=N3)c2)n(C(C)(C)C)n1 [Compound 466] |
| ≤ 1000 | C[C@@]1(c2cc(NC(=O)c3coc(Cl)n3)ccc2F)CCSC(N)=N1 [Compound 467] |
| ≤ 1000 | CC#CCOc1cnc(C(=O)Nc2cc([C@]3(C)CCSC(N)=N3)c3oc(C)cc3c2)cn1 [Compound 469] |
| ≤ 1000 | C[C@@]1(c2cc(NC(=O)c3coc(CCl)n3)ccc2F)CCSC(N)=N1 [Compound 470] |
| ≤ 1000 | Cc1nc(C(=O)Nc2ccc(F)c([C@]3(C)CCSC(N)=N3)c2)c(C(F)(F)F)o1 [Compound 471] |
| ≤ 1000 | C[C@@]1(c2cc(NC(=O)C3=NNC(=O)CC3)ccc2F)CCSC(N)=N1 [Compound 472] |
| ≤ 1000 | Cc1cc(C(=O)Nc2cncc([C@]3(C)CCSC(N)=N3)c2)on1 [Compound 474] |
| ≤ 1000 | CN1N=C(C(=O)Nc2ccc(F)c([C@]3(C)CCSC(N)=N3)c2)CCC1=O [Compound 475] |
| ≤ 1000 | Cc1cc(C(=O)Nc2cncc([C@]3(C)CCSC(N)=N3)c2)n(C)n1 [Compound 476] |
| ≤ 1000 | CCN1N=C(C(=O)Nc2ccc(F)c([C@]3(C)CCSC(N)=N3)c2)CCC1=O [Compound 477] |
| ≤ 1000 | CCn1nc(C)cc1C(=O)Nc1cncc([C@]2(C)CCSC(N)=N2)c1 [Compound 479] |

| IC50 [nM] | Compound |
| --- | --- |
| ≤ 1000 | Cc1cc(C(=O)Nc2cncc([C@]3(C)CCSC(N)=N3)c2)c(C)o1 [Compound 482] |
| ≤ 1000 | Cc1ccc(C(=O)Nc2cncc([C@]3(C)CCSC(N)=N3)c2)s1 [Compound 485] |
| ≤ 1000 | Cc1csc(C(=O)Nc2cncc([C@]3(C)CCSC(N)=N3)c2)c1 [Compound 486] |
| ≤ 1000 | Cc1ccsc1C(=O)Nc1cncc([C@]2(C)CCSC(N)=N2)c1 [Compound 487] |
| ≤ 1000 | COc1cnc(C(=O)Nc2ccc(F)c([C@]3(C)CCSC(N)=N3)c2)c(OC)c1 [Compound 489] |
| ≤ 1000 | C[C@@]1(c2cc(NC(=O)c3ccc(Cl)nn3)ccc2F)CCSC(N)=N1 [Compound 490] |
| ≤ 1000 | Cc1cnc(C(=O)Nc2ccc(Br)c(C3(C)CCSC(N)=N3)c2)cn1 (stereo not shown) [Compound 492] |
| ≤ 1000 | CSc1ccc(C(=O)Nc2cncc([C@]3(C)CCSC(N)=N3)c2)s1 [Compound 493] |
| ≤ 1000 | CCc1cc(C(=O)Nc2ccc(F)c([C@]3(C)CCSC(N)=N3)c2)on1 [Compound 495] |
| ≤ 1000 | C[C@@]1(c2cc(NC(=O)c3c[nH]nc3C3CC3)ccc2F)CCSC(N)=N1 [Compound 499] |
| ≤ 1000 | Cc1noc(C)c1C(=O)Nc1ccc(F)c([C@]2(C)CCSC(N)=N2)c1 [Compound 500] |
| ≤ 1000 | Cc1nc(C(=O)Nc2cncc([C@]3(C)CCSC(N)=N3)c2)c(C(F)(F)F)o1 [Compound 501] |
| ≤ 1000 | C[C@@]1(c2cncc(NC(=O)c3ccc(Cl)s3)c2)CCSC(N)=N1 [Compound 504] |
| ≤ 1000 | Cc1ncsc1C(=O)Nc1ccc(F)c([C@]2(C)CCSC(N)=N2)c1 [Compound 506] |
| ≤ 1000 | C[C@@]1(c2cc(NC(=O)c3cnc(-c4ccc[nH]4)cn3)ccc2F)CCSC(N)=N1 [Compound 509] |
| ≤ 1000 | COc1cnc(C(=O)Nc2ccc(F)c([C@]3(C)CCSC(N)=N3)c2)c(F)c1 [Compound 512] |
| ≤ 1000 | C[C@@]1(c2cncc(NC(=O)c3sccc3Br)c2)CCSC(N)=N1 [Compound 515] |
| ≤ 1000 | C[C@@]1(c2cncc(NC(=O)c3cc(Br)cs3)c2)CCSC(N)=N1 [Compound 516] |
| ≤ 1000 | C[C@@]1(c2cc(NC(=O)c3cnc(-c4nccs4)cn3)ccc2F)CCSC(N)=N1 [Compound 519] |
| ≤ 1000 | CC(C)c1nnsc1C(=O)Nc1ccc(F)c(C2(C)CCSC(N)=N2)c1 (stereo not shown) [Compound 520] |
| ≤ 1000 | COCc1ccc(C(=O)Nc2ccc(F)c([C@]3(C)CCSC(N)=N3)c2)o1 [Compound 522] |
| ≤ 1000 | Cc1noc(C)c1-c1cnc(C(=O)Nc2ccc(F)c([C@]3(C)CCSC(N)=N3)c2)cn1 [Compound 523] |
| ≤ 1000 | COc1cscc1C(=O)Nc1ccc(F)c([C@]2(C)CCSC(N)=N2)c1 [Compound 524] |
| ≤ 1000 | CCOc1cnc(C(=O)Nc2ccc(F)c([C@]3(C)CCSC(N)=N3)c2)c(OCC)c1 [Compound 528] |
| ≤ 1000 | Cc1cc(C(=O)Nc2ccc(F)c([C@]3(C)CCSC(N)=N3)c2)oc1C [Compound 529] |

| Compound | IC50 [nM] |
| --- | --- |
| Cc1cccnc1C(=O)Nc1ccc(F)c([C@]2(C)CCSC(N)=N2)c1 [Compound 503] | ≤ 1000 |
| Cc1cc(C(=O)Nc2ccc(F)c([C@]3(C)CCSC(N)=N3)c2)ns1 [Compound 507] | ≤ 1000 |
| Cc1ncc(C(=O)Nc2ccc(F)c([C@]3(C)CCSC(N)=N3)c2)s1 [Compound 508] | ≤ 1000 |
| C[C@@]1(c2cc(NC(=O)c3ncccc3F)ccc2F)CCSC(N)=N1 [Compound 510] | ≤ 1000 |
| C[C@@]1(c2cc(NC(=O)c3ncccc3F)ccc2F)CCSC(N)=N1 [Compound 511] | ≤ 1000 |
| Cc1ccoc1C(=O)Nc1ccc(F)c([C@]2(C)CCSC(N)=N2)c1 [Compound 518] | ≤ 1000 |
